The source of these data is patent publication US10406120B2, “Methods and compositions for treating kidney disorders” (Golden Biotechnology Corporation, priority 2013, dated 2019).

In one assay the test system is desmin. The assay is described as follows: FSGS model: podocyte injury, desmin IHC. It counts as in vivo, BALB/c mice. The note with it: FSGS mice. The protocol: Experiments described herein were performed on 8-week-old female BALB/c mice. The FSGS mice were injected intravenously with a single dose of adriamycin (0.1 mg/10 g body weight). The mice were given Compound 1 six hours before adriamycin injection by gavage daily till sacrifice. BALB/c mice intraperitoneal injected with normal saline were used as normal controls, while ASLN mice given vehicle (corn oil) by gavage were used as disease controls. Mice were killed at day 7, 14, or 21 after disease induction, and spleen, renal cortical tissue, and blood samples collected and stored appropriately until analysis. […]
For IHC, formalin-fixed and paraffin-embedded renal sections were prepared and incubated with primary antibodies against mouse Desmin (Lab Vision, CA, USA), CD3 (pan-T cell; Serotec, N.C., USA), F4/80 (monocytes/macrophages; Serotec), IL-6 (R&D Systems, MN, USA), NF-κB p65 (Cell Signaling Technology, MA, USA), collagen I, III, and IV (Southern Biotech, AL, USA), or TGF-β1 (Santa Cruz Biotechnology, CA, USA), biotinylated second antibodies (Dako, Glostrup, Denmark), and avidin-biotin-peroxidase complex (Dako). Semi-quantitative evaluation of staining was performed.

The subject of the next assay is IL-18. The assay is described as follows: AcP-IgAN model: serum IL-18 ELISA. It counts as in vivo, B cell-deficient mice. Particulars: AcP-IgAN mice, day 28, vs control AcP-IgAN mice. The protocol: (§1) B cell-deficient mice (B6.129S2-Igh-6tm1Cgn/J) were obtained from the Academia Sinica (Professor John T. Kung, Institute of Molecular Biology), and maintained at the animal center of the National Defense Medical Center, Taipei, Taiwan. AcP-IgAN was induced in the mice by daily injection of purified IgA anti-phosphorylcholine antibodies and pneumococcal C-polysaccharide (PnC) as described previously (Chao, et al., Kidney Int. 70:283-297; 2006). All animal experiments were performed with the approval of the Institutional Animal Care and Use Committee of The National Defense Medical Center, Taiwan, and were consistent with the NIH Guide for the Care and Use of Laboratory Animals.
(§2) Serum levels of IL-1β (eBiosceience, CA), IL-6 (eBiosceience), IL-18 (MBL, Japan), and MCP-1 (eBiosceience) were measured using commercial ELISA kits according to the manufacturer's instructions.

For the next assay, the system named is nitric oxide (NO). The assay is described as follows: AcP-IgAN model: NO levels. It counts as in vivo, B cell-deficient mice. Particulars: AcP-IgAN mice.
Source text: NO levels in serum were detected with NO Detection kit (iNtRON Biotechnology, Seongnam, Korea), based on diazotization (Griess method), according to the manufacturer's instructions.
as §1

In the next assay the test system is IL-1β. Kind of assay: AcP-IgAN model: serum IL-1β ELISA. Particulars: AcP-IgAN mice, day 28, vs control AcP-IgAN mice (FIG. 15C). The class given is in vivo, B cell-deficient mice. The protocol: as §1, §2
(In general: ELISA stands for enzyme-linked immunosorbent assay.)

In another assay the test system is apoptosis in the kidney. Kind of assay: AcP-IgAN model: apoptosis in the kidney (TUNEL). It counts as in vivo, B cell-deficient mice. How it is done: as §1
For the detection of apoptosis, terminal deoxynucleotidyl transferase-mediated dUTP nick-end labeling (TUNEL) was employed. Formalin-fixed and paraffin-embedded tissue sections were stained with ApopTag plus peroxidase in situ apoptosis detection kit (Chemicon, CA) according to the manufacturer's instructions. For scoring, the cortical renal area (including glomerular and peri-glomerular areas) were examined and expressed as cells/glomerular cross-section.

Assay [1] in a line: FSGS model: urine protein and renal function (BUN, Cr). The class given is in vivo, BALB/c mice. The note with it: FSGS mice. How it is done:
(§3) Experiments described herein were performed on 8-week-old female BALB/c mice. The FSGS mice were injected intravenously with a single dose of adriamycin (0.1 mg/10 g body weight). The mice were given Compound 1 six hours before adriamycin injection by gavage daily till sacrifice. BALB/c mice intraperitoneal injected with normal saline were used as normal controls, while ASLN mice given vehicle (corn oil) by gavage were used as disease controls. Mice were killed at day 7, 14, or 21 after disease induction, and spleen, renal cortical tissue, and blood samples collected and stored appropriately until analysis. All animal experiments were performed with the ethical approval of the Institutional Animal Care and Use Committee of The National Defense Medical Center, Taiwan and performed according to the ethical rules in the NIH Guide for the Care and Use of Laboratory Animals.
Urine samples were collected in metabolic cages at day 3, 7, 14, and 21, and urine protein was determined as described previously. (Shui, et al., Nephrol Dial Transplant, 21: 1794-1802, 2006) Serum samples were collected at day 7, 14, or 21 when mice were sacrificed to measure serum levels of BUN and Cr.

For a further assay, the system named is Nrf2. Kind of assay: AcP-IgAN model: renal Nrf2 mRNA and protein. The class given is in vivo, B cell-deficient mice. Particulars: AcP-IgAN mice, day 3 until day 28, vs control AcP-IgAN mice. The protocol:
as §1
Nuclear proteins were extracted using a nuclear extract kit (Active Motif, Japan). Phospho-NF-κB p65 and nuclear factor-erythroid-2-related factor 2 (NrF2) were measured in renal tissue nuclear protein extracts using Trans-AM ELISA assay kits (Active Motif), according to the manufacturer's instructions. Renal cytosolic protein extracts using RIPA buffer (Cell signaling). Cytosolic glutathione peroxidase (GPx) (Cayman, Mich.) and cytosolic heme oxygenase-1 (HO-1) (Enzo Life Sciences, NY) were measured using commercial ELISA kits according to the manufacturer's instructions. Both were expressed relative to the protein concentration in the lysate. […]

The subject of a further assay is GPx. Kind of assay: FSGS model: GPx activity in the kidney. The class given is in vivo, BALB/c mice. The note with it: FSGS mice, day 7 until day 21, vs control FSGS mice. The protocol: as §3
GPx activity in renal tissues was measured using a commercial Glutathione Peroxidase Assay kit (Cayman, Mich., USA) according to the manufacturer's instructions Enzyme activity was expressed relative to the protein concentration of glomerular homogenates.

The mark [2] stands for this setting: 50 mg/kg by gavage daily, day 14 to day 21, vs control FSGS mice.
Setting [3] is: day 7, among normal control, control FSGS and FSGS+Antroq mice.

On to `COC1=C(OC)[C@H](O)[C@H](C/C=C(\C)CC/C=C(\C)CCC=C(C)C)[C@@H](C)C1=O` [Compound 1, Antroquinonol], for which the “expression of desmin (IHC)” value with desmin (day 21, compared to normal control mice) is on record as “mild desmin expression levels”. Moreover, the “expression of desmin (IHC)” value in the assay on desmin (days 14 and 21, vs control FSGS mice) is listed as “significantly reduced”. Also, the “serum IL-18 levels” value in the assay with IL-18 is on record as “substantial inhibition”. In addition, the “urine NO levels” value in the assay on nitric oxide (NO) (both day 3 and day 28, vs control AcP-IgAN mice) is “significantly decreased”. The “serum levels of NO” value with nitric oxide (NO) (day 3, vs control AcP-IgAN mice) was “no significant difference”. The “serum levels of NO” value in the assay on nitric oxide (NO) (day 28, vs control AcP-IgAN mice) was “substantially reduced”. In addition, the “serum levels of IL-1β (increase)” value with IL-1β is listed as “greatly inhibited”. For the same compound, the “apoptosis in the kidney (TUNEL), increase” value with apoptosis in the kidney (AcP-IgAN mice, day 28, vs control AcP-IgAN mice) is recorded as “greatly inhibited”. For the same compound, the “apoptosis in the kidney (TUNEL)” value with apoptosis in the kidney (all the mice examined, day 3) is “inconspicuous apoptosis”. In addition, the urine protein levels result in assay [1] (50 mg/kg by gavage daily, day 7 to day 21, vs control FSGS mice (vehicle)) is reported as “greatly suppressed”. Moreover, in assay [1] (setting [2]), the “serum levels of blood urea nitrogen (BUN)” value is “much better renal function” and the “serum levels of creatinine (Cr)” value was “much better renal function”. Further, in assay [1] (setting [3]), the “serum levels of BUN” value is given as “no significant difference” and the “serum levels of Cr” value is “no significant difference”. Moreover, in the assay on Nrf2, the “renal expression levels of mRNA of Nrf2” value is “greatly increased” and the “renal expression levels of protein of Nrf2” value is recorded as “greatly increased”. The “GPx activity in the kidney” value in the assay with GPx is given as “recovered GPx activity”.
